Data taken from patent US10450301B2, “Apoptosis signal-regulating kinase 1 inhibitors and methods of use thereof” (ENANTA PHARMACEUTICALS, INC., priority 2017, dated 2019).

Target: ASK1 (Homo sapiens (Human), UniProt Q99683)
Experiment: HTRF KinEASE Assay (TR-FRET, STK3 peptide substrate), inhibition of ASK1
Format: biochemical
Details: 5 nM ASK1 kinase, 1 μM STK3 peptide substrate, 100 μM ATP, 3 hours; compound 0 to 10 μM
How it was run: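 TR-FRET HTRF KinEASE-STK format with an STK3 biotinylated peptide substrate. Signal tracks phosphorylation; IC50 from curve fitting.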

ASK1, sequence (Q99683 whole entry): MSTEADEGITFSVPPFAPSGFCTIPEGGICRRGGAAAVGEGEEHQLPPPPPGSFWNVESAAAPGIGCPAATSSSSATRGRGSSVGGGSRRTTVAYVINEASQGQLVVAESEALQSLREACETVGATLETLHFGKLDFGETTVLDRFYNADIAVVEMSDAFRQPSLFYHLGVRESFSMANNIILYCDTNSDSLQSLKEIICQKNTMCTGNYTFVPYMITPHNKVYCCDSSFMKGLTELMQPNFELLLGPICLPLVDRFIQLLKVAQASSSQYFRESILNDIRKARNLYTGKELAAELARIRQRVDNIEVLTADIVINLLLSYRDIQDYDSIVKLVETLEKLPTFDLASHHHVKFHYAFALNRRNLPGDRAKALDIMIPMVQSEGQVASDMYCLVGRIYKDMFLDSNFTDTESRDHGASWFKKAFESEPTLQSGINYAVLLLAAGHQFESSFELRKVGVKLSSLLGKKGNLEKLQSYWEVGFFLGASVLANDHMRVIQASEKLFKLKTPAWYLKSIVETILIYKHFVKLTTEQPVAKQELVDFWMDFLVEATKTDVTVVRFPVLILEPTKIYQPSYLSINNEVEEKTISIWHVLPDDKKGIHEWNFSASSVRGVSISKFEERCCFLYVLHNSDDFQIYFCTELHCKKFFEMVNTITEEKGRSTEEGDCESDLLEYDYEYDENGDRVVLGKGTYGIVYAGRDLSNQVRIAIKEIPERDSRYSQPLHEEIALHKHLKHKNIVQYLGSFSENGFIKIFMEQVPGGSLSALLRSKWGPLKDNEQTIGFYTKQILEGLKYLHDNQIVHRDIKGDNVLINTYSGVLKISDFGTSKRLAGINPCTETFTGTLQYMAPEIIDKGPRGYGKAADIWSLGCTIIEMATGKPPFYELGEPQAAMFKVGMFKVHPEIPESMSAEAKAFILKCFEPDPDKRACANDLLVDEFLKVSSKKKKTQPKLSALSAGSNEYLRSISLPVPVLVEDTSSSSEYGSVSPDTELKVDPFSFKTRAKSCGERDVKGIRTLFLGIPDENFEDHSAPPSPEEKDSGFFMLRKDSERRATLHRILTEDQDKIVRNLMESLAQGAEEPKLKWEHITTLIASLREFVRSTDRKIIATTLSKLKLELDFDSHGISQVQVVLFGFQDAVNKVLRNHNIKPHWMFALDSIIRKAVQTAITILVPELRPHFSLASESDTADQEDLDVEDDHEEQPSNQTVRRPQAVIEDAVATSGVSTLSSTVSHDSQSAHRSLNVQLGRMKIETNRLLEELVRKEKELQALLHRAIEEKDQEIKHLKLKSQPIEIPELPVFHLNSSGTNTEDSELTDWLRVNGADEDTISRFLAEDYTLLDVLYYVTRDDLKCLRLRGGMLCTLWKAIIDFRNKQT

| SMILES | IC50 [µM] |
| --- | --- |
| CC(C)n1cnnc1-c1cccc(NC(=O)c2cc3c(cn2)CN(C(=O)OCc2ccccc2)C3)n1 [Example 179, benzyl 6-((6-(4-isopropyl-4H-1,2,4-triazol-3-yl)pyridin-2-yl)carbamoyl)-1,3-dihydro-2H-pyrrolo[3,4-c]pyridine-2-carboxylate] | 0.01 to 0.1 |
| CC(C)n1nnnc1-c1cccc(NC(=O)c2cc3c(cn2)CN(C(=O)OCc2ccccc2)C3)n1 [Example 180] | > 1 |
| C[C@H](CO)n1nnnc1-c1cccc(NC(=O)c2cc3c(cn2)CCN(C)C3)n1 [Example 181] | 0.001 to 0.01 |
| C[C@H](CO)n1nnnc1-c1cccc(NC(=O)c2cc3c(cn2)CCN(C(=O)N2[C@@H]4CCC[C@H]2CC4)C3)n1 [Example 182, 6-((1R,5 S)-8-azabicyclo[3.2.1]octane-8-carbonyl)-N-(6-(1-((R)-1-hydroxypropan-2-yl)-1H-tetrazol-5-yl)pyridin-2-yl)-5,6,7,8-tetrahydro-2,6-naphthyridine-3-carboxamide] | 0.001 to 0.01 |
| C[C@H](CO)n1nnnc1-c1cccc(NC(=O)c2cc3c(cn2)CCN(C(=O)NCCC(F)(F)F)C3)n1 [Example 183] | 0.001 to 0.01 |
| CC(C)n1cnnc1-c1cccc(NC(=O)c2ccc3c(c2)CN(C(=O)OC(C)(C)C)CC3)n1 [Example 183a] | > 1 |
| C[C@H](CO)n1nnnc1-c1cccc(NC(=O)c2cc3c(cn2)CCN(C(=O)N(C)C2CCCC2)C3)n1 [Example 184, (R)—N2-cyclopentyl-N7-(6-(1-(1-hydroxypropan-2-yl)-1H-tetrazol-5-yl)pyridin-2-yl)-N2-methyl-3,4-dihydro-2,6-naphthyridine-2,7(1H)-dicarboxamide] | > 1 |
| C[C@H](CO)n1nnnc1-c1cccc(NC(=O)c2cc3c(cn2)CCN(C(=O)N2CCC2)C3)n1 [Example 185, (R)-6-(azetidine-1-carbonyl)-N-(6-(1-(1-hydroxypropan-2-yl)-1H-tetrazol-5-yl)pyridin-2-yl)-5,6,7,8-tetrahydro-2,6-naphthyridine-3-carboxamide] | 0.001 to 0.01 |
| C[C@H](CO)n1nnnc1-c1cccc(NC(=O)c2cc3c(cn2)CCN(C(=O)NC2COC2)C3)n1 [Example 186] | 0.01 to 0.1 |
| CCn1cc(CNC(=O)N2CCc3cnc(C(=O)Nc4cccc(-c5nnnn5[C@H](C)CO)n4)cc3C2)cn1 [Example 187] | < 0.001 |
| CCn1cc(COC(=O)N2CCc3cnc(C(=O)Nc4cccc(-c5nnnn5[C@H](C)CO)n4)cc3C2)cn1 [Example 188, (1-ethyl-1H-pyrazol-4-yl)methyl (R)-7-((6-(1-(1-hydroxypropan-2-yl)-1H-tetrazol-5-yl)pyridin-2-yl)carbamoyl)-3,4-dihydro-2,6-naphthyridine-2(1H)-carboxylate] | 0.001 to 0.01 |
| C[C@H](CO)n1nnnc1-c1cccc(NC(=O)c2cc3c(cn2)CCN(C(=O)OC2CC4CCC(C2)N4C)C3)n1 (stereo partly drawn) [Example 190, 8-methyl-8-azabicyclo[3.2.1]octan-3-yl 7-((6-(1-((R)-1-hydroxypropan-2-yl)-1H-tetrazol-5-yl)pyridin-2-yl)carbamoyl)-3,4-dihydro-2,6-naphthyridine-2(1H)-carboxylate] | 0.001 to 0.01 |
